Data reported in patent publication US8303962B2, “Antibacterial and antifungal peptides” (C3 Jian, Inc., priority 2009, dated 2012).
In brackets after ≈: the same amount, converted by molar mass. Read-outs that look alike come from different tables or passages of the source. Peptide text beside a SMILES is read from it.

What was measured:
A. baumannii = assay type: cell-based, Acinetobacter baumannii; settings: LB, 30° C., anaerobic
Experimental: (§1) In certain embodiments the MIC assays are performed as described herein in the Examples. For each organism, the media and growth conditions utilized is detailed in Table 8.
(§2) In certain embodiments the MIC assays are performed as follows: For each organism, the media and growth conditions utilized is detailed in Table 8.

B. subtilis = assay type: cell-based, Bacillus subtilis
Experimental: as §1, §2

MRSA = assay type: cell-based, Methicillin-resistant Staphylococcus aureus
Experimental: as §1, §2

S. mutans = assay type: cell-based, Streptococcus mutans; settings: TH supplemented with 1% sucrose, 37° C., anaerobic
Experimental: as §1, §2

P. aeruginosa = assay type: cell-based, Pseudomonas aeruginosa; settings: MH, 37° C., aerobic
Experimental: as §1, §2

S. epidermidis = assay type: cell-based; settings: BHI supplemented with 0.25% glucose, 37° C., aerobic
Experimental: as §1, §2

M. furfur = assay: MIC assay, M. furfur; assay type: cell-based, Malassezia furfur; settings: ATCC medium 1072, 37° C., aerobic
Experimental: as §1, §2

T. rubrum = assay type: cell-based, Trichophyton rubrum; settings: T. rubrum; Potato Dextrose Agar, 25° C., aerobic
Experimental: as §1, §2

P. gingivalis = assay type: cell-based, Porphyromonas gingivalis; settings: Columbia broth, 37° C., anaerobic
Experimental: as §1, §2

S. pneumoniae = assay type: cell-based, Streptococcus pneumoniae; settings: TSB supplemented with 5% yeast extract, 37° C., 10% CO2
Experimental: as §1, §2

A. niger = assay type: cell-based, Aspergillus niger
Experimental: as §1, §2

CC[C@H](C)[C@H](NC(=O)CNC(=O)[C@@H](N)CCSC)C(=O)N[C@H](C(=O)N[C@@H](C)C(=O)NCC(=O)N[C@H](C(=O)N[C@H](C(=O)N[C@@H](CCCCN)C(=O)N[C@@H](Cc1ccccc1)C(=O)N[C@H](C(=O)N[C@@H](CCCCN)C(=O)NCC(=O)N[C@@H](CC(C)C)C(=O)N[C@H](C(=O)N[C@@H](CCC(=O)O)C(=O)N[C@@H](CCCCN)C(=O)N[C@@H](Cc1ccccc1)C(=O)N[C@H](C(=O)NCC(=O)N[C@@H](CCCCN)C(=O)O)[C@@H](C)O)[C@@H](C)CC)[C@@H](C)CC)[C@@H](C)CC)[C@@H](C)CC)[C@@H](C)CC [PF-006]
MIC (A. baumannii): 50 µM (≈ 114 µg/mL) | MIC (B. subtilis; B. subtilis, BHI, 30° C., aerobic): 25 µM (≈ 56.9 µg/mL) | MIC (MRSA; MRSA, BHI supplemented with 2% glucose, 37° C., aerobic): 50 µM (≈ 114 µg/mL)

CC[C@H](C)[C@H](NC(=O)[C@@H](NC(=O)[C@H](CO)NC(=O)CN)C(C)C)C(=O)N[C@@H](CCCCN)C(=O)N[C@@H](CCCCN)C(=O)N[C@@H](CCCNC(=N)N)C(=O)N[C@@H](CCCNC(=N)N)C(=O)N[C@@H](CCCCN)C(=O)N[C@@H](CCCNC(=N)N)C(=O)N[C@@H](CCSC)C(=O)N[C@@H](CO)C(=O)N[C@@H](CCCCN)C(=O)N[C@@H](CCCCN)C(=O)N[C@@H](CCCCN)C(=O)N[C@@H](Cc1c[nH]cn1)C(=O)N[C@@H](CCCNC(=N)N)C(=O)N[C@@H](CCCCN)C(=O)N[C@@H](CCSC)C(=O)N[C@@H](CC(C)C)C(=O)N[C@@H](CCCNC(=N)N)C(=O)N[C@@H](CCCNC(=N)N)C(=O)N[C@H](C(=O)N[C@@H](CCCNC(=N)N)C(=O)N[C@H](C(=O)N[C@@H](CCC(N)=O)C(=O)N[C@@H](CCCNC(=N)N)C(=O)N[C@@H](CCCNC(=N)N)C(=O)N[C@@H](CCCCN)C(=O)N[C@@H](CC(C)C)C(=O)NCC(=O)N[C@@H](CCCCN)C(=O)O)C(C)C)[C@@H](C)O [PF-S028]
MIC (S. mutans): 50 µM (≈ 202 µg/mL) | MIC (P. aeruginosa): 50 µM (≈ 202 µg/mL) | MIC (S. epidermidis): 25 µM (≈ 101 µg/mL) | MIC (M. furfur): 2.5 µM (≈ 10.1 µg/mL) | MIC (T. rubrum): 50 µM (≈ 202 µg/mL) | MIC (P. gingivalis): 25 µM (≈ 101 µg/mL)

CC(C)C[C@H](NC(=O)CNC(=O)[C@@H](N)CC(C)C)C(=O)N[C@H](C(=O)N[C@@H](C)C(=O)NCC(=O)N[C@H](C(=O)N[C@@H](C)C(=O)N[C@@H](Cc1ccc(O)cc1)C(=O)N[C@@H](C)C(=O)N[C@@H](C)C(=O)N[C@@H](CCC(N)=O)C(=O)N1CCC[C@H]1C(=O)N[C@H](C(=O)N[C@@H](CC(N)=O)C(=O)N[C@@H](CCC(N)=O)C(=O)N1CCC[C@H]1C(=O)N[C@H](C(=O)N[C@@H](CC(N)=O)C(=O)N[C@@H](CCC(N)=O)C(=O)N1CCC[C@H]1C(=O)N[C@H](C(=O)N[C@@H](CC(N)=O)C(=O)N[C@@H](CCC(N)=O)C(=O)N1CCC[C@H]1C(=O)N[C@H](C(=O)N[C@@H](CC(N)=O)C(=O)N[C@@H](CCC(N)=O)C(=O)N1CCC[C@H]1C(=O)N[C@H](C(=O)N[C@@H](CC(N)=O)C(=O)N[C@@H](CCC(N)=O)C(=O)N1CCC[C@H]1C(=O)N[C@H](C(=O)N[C@@H](CC(N)=O)C(=O)N[C@@H](CCC(N)=O)C(=O)N1CCC[C@H]1C(=O)N[C@@H](CCCNC(=N)N)C(=O)N[C@@H](Cc1c[nH]c2ccccc12)C(=O)O)[C@@H](C)O)[C@@H](C)O)[C@@H](C)O)[C@@H](C)O)[C@@H](C)O)[C@@H](C)O)C(C)C)[C@@H](C)O [PF-520] (H-LGLTAGVAYAAQPTNQPTNQPTNQPTNQPTNQPTNQPRW-OH; N-terminus and C-terminus assumed)
MIC (S. pneumoniae): 50 µM (≈ 211 µg/mL)

CC[C@H](C)[C@H](NC(=O)[C@H](CCCNC(=N)N)NC(=O)[C@@H](NC(=O)[C@H](CCCCN)NC(=O)[C@H](CCCCN)NC(=O)[C@H](CC(C)C)NC(=O)[C@H](CC(C)C)NC(=O)[C@H](CCCCN)NC(=O)[C@H](CCCNC(=N)N)NC(=O)[C@H](Cc1c[nH]cn1)NC(=O)[C@H](CCCCN)NC(=O)[C@H](CCCCN)NC(=O)[C@H](CCCCN)NC(=O)[C@H](C)NC(=O)[C@H](CCSC)NC(=O)[C@H](CCCNC(=N)N)NC(=O)[C@H](CCCCN)NC(=O)[C@H](CCCNC(=N)N)NC(=O)[C@H](CCCNC(=N)N)NC(=O)[C@H](CCCCN)NC(=O)[C@H](CCCCN)NC(=O)[C@@H](NC(=O)[C@@H](NC(=O)[C@H](CO)NC(=O)CN)C(C)C)[C@@H](C)CC)[C@@H](C)O)C(=O)N[C@@H](CCC(N)=O)C(=O)N[C@@H](CCCNC(=N)N)C(=O)N[C@@H](CCCNC(=N)N)C(=O)N[C@@H](CCCNC(=N)N)C(=O)N[C@@H](C)C(=O)NCC(=O)N[C@@H](CCCCN)C(=O)O [PF-527] (H-GSVIKKRRKRMAKKKHRKLLKKTRIQRRRAGK-OH; N-terminus and C-terminus assumed)
MIC (T. rubrum): 25 µM (≈ 98.5 µg/mL) | MIC (A. niger; A. niger, Potato Dextrose Agar, 25° C., aerobic): 50 µM (≈ 197 µg/mL)

CC[C@H](C)[C@H](NC(=O)[C@H](CCCNC(=N)N)NC(=O)[C@H](CCCNC(=N)N)NC(=O)[C@H](CCCNC(=N)N)NC(=O)[C@@H](NC(=O)[C@H](CCSC)NC(=O)[C@H](CC(=O)O)NC(=O)[C@H](C)NC(=O)[C@H](CCSC)NC(=O)[C@H](C)NC(=O)[C@@H](NC(=O)[C@H](CC(C)C)NC(=O)[C@H](CCCCN)NC(=O)[C@H](CO)NC(=O)[C@H](CCC(=O)O)NC(=O)[C@@H](N)CCCNC(=N)N)[C@@H](C)CC)[C@@H](C)CC)C(=O)O [PF-545] (H-RESKLIAMADMIRRRI-OH; N-terminus and C-terminus assumed)
MIC (B. subtilis): 25 µM (≈ 49 µg/mL) | MIC (A. niger): 50 µM (≈ 98 µg/mL) | MIC (MRSA): 50 µM (≈ 98 µg/mL)
